Data taken from patent US8357673B2, “4-arylazo-3,5-diamino-pyrazole compounds and use thereof” (Univerzita Palackeho V Olomouci, priority 2004, dated 2013).

Experiments:
[1] = molecular target: T1, CDK2/cyclin E (Homo sapiens, UniProt P24941); experiment: CDK2/cyclin E kinase inhibition assay (histone H1, [γ-33P]ATP); type: biochemical; details: for IC50: averaged from triplicates, 15 μM ATP
T1 construct: made in house; host or cells: Sf9 insect cells (baculovirus co-infection)
Protocol: (§1) CDK1/cyclin B and CDK2/cyclin E kinases were produced in Sf9 insect cells coinfected with appropriate baculoviral constructs. The cells were harvested 70 h post infection, incubated in lysis buffer (50 mM Tris pH 7.4, 150 mM NaCl, 5 mM EDTA, 20 mM NaF, 1% Tween 20, 1 mM DTT, 0.1 mM PMSF, 0.5 μg/ml leupeptine, 1 μg/ml aprotonine) for 30 min on ice and the soluble fraction was recovered by centrifugation at 20.000 g for 10 min. The enzymes were purified on NiNTA column (Qiagen), stored at 4° C. and used within a week. To carry out the enzyme inhibition assays under linear conditions, the final point test system for kinase activity measurement was used. Kinase was added to reaction mixture in such a way as to obtain linear activity with respect to the concentration of enzyme and with respect to time. For determination of kinase inhibition the reaction mixture contained 1 mg/ml histone H1 (type III-S, Sigma) in the presence of 15 μM ATP, 0.05 μCi [γ-^33P]ATP and the tested compound in a final volume of 10 μl; all in reaction buffer (50 mM HEPES, 10 mM MgCl2, 5 mM EGTA, 10 mM 2-glycerolphosphate, 1 mM NaF, 1 mM DTT, pH 7.4). After 20 min incubation, the reactions were stopped by the addition of 5 μl of a 3% H3PO4, aliquots were spotted on P-81 phosphocellulose (Whatman, USA) that was subsequently washed 3× with 5% H3PO4 and finally air dried. The measurements of kinase inhibition employed digital image analyzer BAS-1800 (Fujifilm, Japan). Kinase activity was usually expressed as a percentage of maximum activity. […] For the purpose of kinetic analysis, the activity was expressed as arbitrary units (AU) of digital image analyzer signal.

[2] = molecular target: T2, CDK1/cyclin B (Homo sapiens, UniProt P06493); experiment: CDK1/cyclin B kinase inhibition assay (histone H1, [γ-33P]ATP); type: biochemical; details: averaged from triplicates; 15 μM ATP
T2 construct: made in house; host or cells: Sf9 insect cells (baculovirus co-infection)
Protocol: as §1

[3] = tested on: MCF7 (human breast adenocarcinoma); experiment: In vitro cytotoxicity, Calcein AM, 72 h; type: cell-based; details: 72 h
Protocol: (§2) Tested drugs were added to the cell cultures in six different concentration and kept at 37° C. and 5% CO2 for three days.
(§3) The cells, cultured in DMEM (supplemented with 10% fetal calf serum, 4 mM glutamine, 100 IU/ml penicillin, 100 μg/ml streptomycin) in a humidified CO2 incubator at 37° C., were redistributed into 96-well microtitre plates (10.000 cells per well). After 12 h preincubation, tested compounds in six-fold dilutions were added. Treatment of cells with the tested compounds (in the 1-100 μM range) lasted for 72 h.

[4] = tested on: K562 (human chronic myeloblastic leukemia); experiment: In vitro cytotoxicity, Calcein AM, 72 h; type: cell-based; details: 72 h
Protocol: as §2, §3

[5] = tested on: HOS (human osteogenic sarcoma); experiment: In vitro cytotoxicity, Calcein AM, 72 h; type: cell-based
Protocol: as §2, §3

[6] = tested on: G 361 (human malignant melanoma); experiment: In vitro cytotoxicity, Calcein AM, 72 h; type: cell-based; details: 72 h
Protocol: as §2, §3

T2 sequence (P06493 whole entry): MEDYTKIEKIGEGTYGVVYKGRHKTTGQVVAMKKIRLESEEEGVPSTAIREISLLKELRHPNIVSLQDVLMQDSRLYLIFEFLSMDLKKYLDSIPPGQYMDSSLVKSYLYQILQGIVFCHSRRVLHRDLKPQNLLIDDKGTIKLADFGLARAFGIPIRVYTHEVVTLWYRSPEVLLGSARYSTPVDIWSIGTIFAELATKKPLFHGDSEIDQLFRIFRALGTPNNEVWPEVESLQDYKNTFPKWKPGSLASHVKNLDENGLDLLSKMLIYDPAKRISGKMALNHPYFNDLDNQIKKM
T2 sequence (P14635 whole entry partner): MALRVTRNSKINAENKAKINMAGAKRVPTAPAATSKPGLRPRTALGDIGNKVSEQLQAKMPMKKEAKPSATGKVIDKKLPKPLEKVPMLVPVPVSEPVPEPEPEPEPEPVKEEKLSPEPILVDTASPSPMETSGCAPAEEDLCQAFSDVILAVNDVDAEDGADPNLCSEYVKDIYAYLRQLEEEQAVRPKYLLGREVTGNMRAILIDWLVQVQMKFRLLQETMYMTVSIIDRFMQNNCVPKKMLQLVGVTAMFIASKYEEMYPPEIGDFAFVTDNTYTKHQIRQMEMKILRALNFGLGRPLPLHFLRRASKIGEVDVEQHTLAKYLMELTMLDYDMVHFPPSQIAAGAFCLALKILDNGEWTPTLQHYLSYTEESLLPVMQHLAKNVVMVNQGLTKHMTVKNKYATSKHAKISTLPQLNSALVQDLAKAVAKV

Row | IC50 [1] [µM] | IC50 [2] [µM] | SMILES | further results
1 | > 100 | > 100 | Nc1n[nH]c(N)c1N=Nc1ccc(S(=O)(=O)Nc2nccs2)cc1 [Compound 20b, 4-[(3,5-diaminopyrazol-4-yl)azo]-N-(thiazol-2-yl)-benzensulfonamide] | –
2 | > 100 | > 100 | Cc1cc(C)nc(NS(=O)(=O)c2ccc(N=Nc3c(N)n[nH]c3N)cc2)n1 [Compound 21b, 4-[(3,5-diamino-pyrazol-4-yl)-azo]-N-(4,6-dimethylpyrimidin-2-yl)benzensulfonamide] | inhibition of the enzyme CDK2 (in words) [1]: failed to inhibit the enzyme
3 | > 100 | > 100 | COc1cnc(NS(=O)(=O)c2ccc(N=Nc3c(N)n[nH]c3N)cc2)nc1 [Compound 22b, 4-[(3,5-diamino-pyrazol-4-yl)-azo]-N-(5-methoxypyrimidin-2-yl)-benzensulfonamide] | –
4 | > 100 | > 100 | COc1ccc(NS(=O)(=O)c2ccc(N=Nc3c(N)n[nH]c3N)cc2)nn1 [Compound 23b, 4-[(3,5-diamino-pyrazol-4-yl)-azo]-N-(6-methoxypyridazin-3-yl)-benzensulfonamide] | –
5 | > 100 | > 100 | Nc1n[nH]c(N)c1/N=N/c1ccc(-c2nc3ccccc3[nH]c2=O)cc1 [Compound 24b] | –
6 | > 100 | > 100 | Nc1n[nH]c(N)c1/N=N/c1ccccc1-c1nc2ccccc2[nH]c1=O [Compound 25b] | –
7 | 95 | – | Nc1n[nH]c(N)c1N=Nc1ccccc1Cc1nc2ccccc2[nH]c1=O [Compound 26b] | –
8 | > 100 | > 100 | Cc1cc2nc(Cc3ccccc3N=Nc3c(N)n[nH]c3N)c(=O)[nH]c2cc1C [Compound 27b] | –
9 | > 100 | > 100 | Cc1c(/N=N/c2c(N)n[nH]c2N)c(=O)n(-c2ccccc2)n1C [Compound 31b] | –
10 | > 100 | > 100 | Nc1n[nH]c(N)c1/N=N/c1ccc(C(=O)c2ccc(/N=N/c3c(N)n[nH]c3N)cc2)cc1 [Compound 32d] | –
11 | > 100 | > 100 | Nc1n[nH]c(N)c1/N=N/c1cccc(C(=O)c2cccc(/N=N/c3c(N)n[nH]c3N)c2)c1 [Compound 33d] | –
12 | > 100 | > 100 | Nc1n[nH]c(N)c1/N=N/c1ccc(S(=O)(=O)c2ccc(/N=N/c3c(N)n[nH]c3N)cc2)cc1 [Compound 34d] | –
13 | > 100 | > 100 | Nc1n[nH]c(N)c1/N=N/c1cccc(S(=O)(=O)c2cccc(/N=N/c3c(N)n[nH]c3N)c2)c1 [Compound 35d] | –

Row | SMILES | IC50 [1] [µM] | IC50 [2] [µM] | further results
14 | Nc1n[nH]c(N)c1N=Nc1cccc2ccccc12 [Compound 28b, 3,5-diamino-4-(naphth-1-yl)azo-pyrazole] | 10 | 5.5 | IC50 ([3]; Calcein AM, triplicates, read-out: IC50 (μM) MCF7): > 100 µM; % of viable cells MCF7 ([3]; at 100 μM): (56 ± 1%); IC50 ([4]; Calcein AM, triplicates, read-out: IC50 (μM) K562): 50 ± 3 µM; % of viable cells K562 ([4]; at 100 μM): (7.7 ± 6%); IC50 ([5]; Calcein AM, triplicates, read-out: IC50 (μM) HOS): > 100 µM; % of viable cells HOS ([5]; at 100 μM): (79 ± 8%); IC50 ([6]; Calcein AM, triplicates, read-out: IC50 (μM) G361): > 100 µM; % of viable cells G361 ([6]; at 100 μM): (55 ± 14%)
15 | Nc1n[nH]c(N)c1N=Nc1ccc2ccccc2c1 [Compound 29b, 3,5-diamino-4-(naphth-2-yl)azo-pyrazole] | 15 | 16 | –
